# Tests used:
# [1] = system: Human non-small-cell lung cancer cells (NCI-H1299); test: Radiation (X-ray) sensitizing effect, DNA fragmentation (subG1, FACS) in NCI-H1299 cells; type: cell-based
# Excerpt: Pharmaceutical Test 5 (Method of Determining Drug Potency with Cells (Radiation (X-Ray) Sensitizing Effect))
# Fetal bovine serum (FBS) was gotten from Morgate; RPMI 1640 medium and 0.25% trypsin EDTA were from Invitrogen; cycle test plus DNA reagent kit was from Becton Dickinson; and nylon net filter was from Millipore.
# Human non-small-cell lung cancer cells (NCI-H1299) were gotten from ATCC.
# NCI-H1299 cells were suspended in 10% FBS-added RPMI 1640 medium, and the cell suspension was applied to a 6-well Nunclondelta-processed plastic plate bought from Nunc, in an amount of 100,000 cell/2 ml/well, and incubated overnight in 5% CO2-95% air at 37° C. Using Softex's M-150WE, the cells were irradiated with 5000 R X-rays, and then further incubated in 5% CO2-95% air at 37° C. for 16 hours. A test compound was stepwise diluted with DMSO, and applied to a plate with the X-ray-processed cells sowed thereon, in an amount of 2 μL. This was incubated in 5% CO2-95% air at 37° C. for 8 hours, and then the culture was partly taken out. 0.25% trypsin was added to the cells remaining on the plate, in an amount of 600 μL, and statically kept at room temperature to prepare a single cell suspension. […] Using Becton Dickinson's FACS Calibur, the DNA amount in each cell was quantitatively determined according to a FACS process, and the ratio of the cells having caused DNA fragmentation was determined.
# [2] = system: Cdc2 (Cdk1) tyrosine 15-phosphorylation; test: Cdc2 (Cdk1) tyrosine 15-phosphorylation-inhibitory effect in NCI-H1299 cells + camptothecin (ELISA); type: cell-based; details: Homo sapiens, camptothecin 200 nM for 16 hours, then test compound with nocodazole for 8 hours, read-out: Cdc2-Y15 Phosphorylation-Inhibitory Effect (H1299, + camptothecin) (EC50)
# Excerpt: Pharmaceutical Text 2 (Method of Determining Drug Potency in Cells (Cdc2 (Cdk1) Tyrosine 15-Phosphorylation-Inhibitory Effect))
# Fetal bovine serum (FBS) was obtained from Morgate; media RPMI1640 and DMEM were from Invitrogen; camptothecin was from Sigma; gemcitabine was from Nippon Eli Lilly; nocodazole and protease inhibitor cocktail were from Sigma; rabbit anti-Cdc2 antibody and mouse anti-Cdc2 antibody were from Santa Cruz Biotechnology; rabbit anti-tyrosine 15-phosphorylated Cdc2 antibody and horseradish peroxidase-labeled anti-mouse IgG antibody were from Cell Signaling Technology; sure blue reserve TMB peroxidase substrate was from Kirkegaard and Perry Laboratories. […]
# In the method of using NCI-H1299 cells, the cells were suspended in RPMI1640 containing 10% FBS, and the cell suspension was applied to a 96-well Nunclondelta-processed plastic plate (bought from Nunc), in an amount of 2000 cells/100 μL/well, in which the cells were incubated overnight in 5% CO2-95% air at 37° C. […] Cdc2 was determined through ELISA as follows: A rabbit anti-Cdc2 antibody solution, which had been diluted 200-fold with 50 mM carbonate-bicarbonate buffer (pH 9.6), was applied to a 96-well maxisorpimmuno plate (bought from Nunc), in an amount of 50 μL/well, and statically kept overnight at 4° C. so as to fix the antibody on the plate. […]
smiles,measurement,setting,value
"C=CCn1c(=O)c2cnc(Nc3ccc(N4CCN(C)CC4)cc3)nc2n1-c1cccc(C(C)(C)O)n1 [Example 53, 2-allyl-1-[6-(1-hydroxy-1-methylethyl)pyridin-2-yl]-6-{[4-(4-methylpiperazin-1-yl)phenyl]amino}-1,2-dihydro-3H-pyrazolo[3,4-d]pyrimidin-3-one]","DNA Fragmentation-Inducing Effect (H1299) (subG1, %)","[1]; X-ray (5000 R, 16 hours before) + compound for 8 hours",54.8%
same,"DNA Fragmentation-Inducing Effect (H1299) (subG1, %)","[1]; compound alone, without X-ray, 8 hours",3.9%
same,EC50,[2],68 nM

# Reference: patent US7834019B2, “Substituted pyrazolo[3,4-d]pyrimidinone derivatives” (Banyu Pharmaceutical Co., Ltd., priority 2006, dated 2010)
